Data as given in PMC11859928, “Design, Synthesis, and Antiproliferative Activity of Novel Indole/1,2,4-Triazole Hybrids as Tubulin Polymerization Inhibitors” (Pharmaceuticals, 2025).
Where two headings read alike, the source gives them in different places.

Key:
EKVX = experiment: NCI five-dose assay; format: cell-based, human; conditions: five dose levels
T-47D = experiment: NCI five-dose assay; format: cell-based, human; conditions: five dose levels
MCF7 = experiment: NCI five-dose assay; format: cell-based, human; conditions: MCF7, five dose levels
HS 578T = experiment: NCI five-dose assay; format: cell-based, human; conditions: five dose levels
A549/ATCC = experiment: NCI five-dose assay; format: cell-based, human; conditions: five dose levels
SNB-19 = experiment: NCI five-dose assay; format: cell-based, human; conditions: SNB-19, five dose levels
NCI-H226 = experiment: NCI five-dose assay; format: cell-based, human; conditions: Homo sapiens, NCI-H226, five dose levels
KM12 = experiment: NCI five-dose assay; format: cell-based, human; conditions: KM12, five dose levels
A498 = experiment: NCI five-dose assay; format: cell-based, human; conditions: A498, five dose levels
Colon cancer subpanel = experiment: NCI five-dose assay, subpanel mean; format: cell-based, human
COLO205 = experiment: NCI five-dose assay; format: cell-based, human; conditions: COLO205, five dose levels
[1] = tested on: panel of 60 human tumor cell lines; experiment: NCI five-dose assay, full panel; format: cell-based
MDA-MB-435 = experiment: NCI five-dose assay; format: cell-based, human; conditions: MDA-MB-435, five dose levels
OVCAR-8 = experiment: NCI five-dose assay; format: cell-based, human; conditions: OVCAR-8, five dose levels
U251 = experiment: NCI five-dose assay; format: cell-based, human; conditions: U251, five dose levels
tubulin = target: T1, tubulin (Sus scrofa, UniProt P02550+P02554); experiment: Tubulin polymerization inhibitory assay; format: biochemical
T1 construct: purchased Cytoskeleton Inc., Denver, CO, USA
In short: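 Compound effects on tubulin polymerization were measured with the Tubulin Polymerization Assay Kit (Cytoskeleton Inc., Denver, CO, USA), run as the supplier instructs, which detects polymerization through enhancement of a fluorescent reporter. Docetaxel served as the stabilizing control and vincristine as the destabilizing control, each at 3 µM in PBS.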

IGROV1 = experiment: NCI five-dose assay; format: cell-based, human; conditions: IGROV1, five dose levels
Ovarian cancer subpanel = experiment: NCI five-dose assay, subpanel mean; format: cell-based, human
SK-MEL-5 = experiment: NCI five-dose assay; format: cell-based, human; conditions: SK-MEL-5, five dose levels
NCI-H322M = experiment: NCI five-dose assay; format: cell-based, human; conditions: five dose levels
Prostate cancer subpanel = experiment: NCI five-dose assay, subpanel mean; format: cell-based, human
HT29 = experiment: NCI five-dose assay; format: cell-based, human; conditions: HT29, five dose levels
SF-295 = experiment: NCI five-dose assay; format: cell-based, human; conditions: SF-295, five dose levels
SK-MEL-28 = experiment: NCI five-dose assay; format: cell-based, human; conditions: SK-MEL-28, five dose levels
HOP-62 = experiment: NCI five-dose assay; format: cell-based, human; conditions: HOP-62, five dose levels
[2] = Homo sapiens, read-out: GI50 Conc. per Cell Lines
[3] = Homo sapiens, read-out: LC50 (the source's name)

T1 sequence (P02554 whole entry): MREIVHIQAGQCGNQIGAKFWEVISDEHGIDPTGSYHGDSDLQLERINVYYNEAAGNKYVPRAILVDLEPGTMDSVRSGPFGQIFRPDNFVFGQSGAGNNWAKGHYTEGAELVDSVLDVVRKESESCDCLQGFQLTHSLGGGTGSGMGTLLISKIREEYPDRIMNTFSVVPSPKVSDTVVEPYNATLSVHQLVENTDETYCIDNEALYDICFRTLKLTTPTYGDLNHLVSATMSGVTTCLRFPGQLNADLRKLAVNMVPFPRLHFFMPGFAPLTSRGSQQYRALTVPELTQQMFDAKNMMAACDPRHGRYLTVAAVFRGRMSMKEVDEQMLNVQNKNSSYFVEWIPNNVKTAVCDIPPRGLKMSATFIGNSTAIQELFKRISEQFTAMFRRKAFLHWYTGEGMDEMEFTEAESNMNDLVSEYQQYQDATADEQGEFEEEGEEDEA
T1 sequence (P02550 whole entry): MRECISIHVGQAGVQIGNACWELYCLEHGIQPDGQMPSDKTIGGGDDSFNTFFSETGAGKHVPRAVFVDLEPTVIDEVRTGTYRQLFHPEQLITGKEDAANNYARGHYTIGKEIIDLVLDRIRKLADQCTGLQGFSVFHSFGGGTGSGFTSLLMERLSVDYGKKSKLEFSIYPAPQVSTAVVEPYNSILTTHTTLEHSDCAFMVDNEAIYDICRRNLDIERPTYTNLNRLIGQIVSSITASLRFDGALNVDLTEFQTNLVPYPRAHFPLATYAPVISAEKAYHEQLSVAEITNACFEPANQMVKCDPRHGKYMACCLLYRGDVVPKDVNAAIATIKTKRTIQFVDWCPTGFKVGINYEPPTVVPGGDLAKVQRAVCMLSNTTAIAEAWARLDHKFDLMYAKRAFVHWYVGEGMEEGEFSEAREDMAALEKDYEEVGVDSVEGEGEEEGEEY

With `O/N=C(\CSc1nnc(-c2c[nH]c3ccccc23)n1-c1ccccc1)c1ccc(Cl)cc1` [Compound 7j, (Z)-2-((5-(1H-Indol-3-yl)-4-phenyl-4H-1,2,4-triazol-3-yl)thio)-1-(4-chlorophenyl) Ethanone Oxime] the GI50 (EKVX; [2]) was 3.21 µM, the CC50 (EKVX; [3]) was greater than 100 µM and the “TGI Conc. per Cell Lines” value (EKVX) was 19.2 µM. The LC50 (concentration killing 50% of cells) (T-47D; Homo sapiens, T47D) was greater than 100 µM, the GI50 (T-47D; Homo sapiens, T47D, read-out: GI50 Conc. per Cell Lines) was 3.6 µM and the “TGI Conc. per Cell Lines” value (T-47D) was 31.4 µM. The LC50 (MCF7; Homo sapiens) was 22.5 µM, the GI50 (MCF7; [2]) was 3.63 µM and the “TGI Conc. per Cell Lines” value (MCF7) was 21.6 µM. The LC50 (HS 578T; Homo sapiens) was greater than 100 µM, the GI50 (HS 578T; [2]) was 3.09 µM and the “TGI Conc. per Cell Lines” value (HS 578T) was 16.6 µM. For the same compound, the GI50 (A549/ATCC; [2]) was 3.35 µM, the CC50 (A549/ATCC; [3]) was greater than 100 µM and the “TGI Conc. per Cell Lines” value (A549/ATCC) was 16.8 µM. For the same compound, the GI50 (SNB-19; [2]) was 6.89 µM, the CC50 (SNB-19; [3]) was greater than 100 µM and the “TGI Conc. per Cell Lines” value (SNB-19) was 45.2 µM. The GI50 (NCI-H226; read-out: GI50 Conc. per Cell Lines) was 3.99 µM, the CC50 (NCI-H226; read-out: LC50 (the source's name)) was 61.8 µM and the GI50 (KM12; [2]) was 4.72 µM. For the same compound, the CC50 (KM12; [3]) was greater than 100 µM, the “TGI Conc. per Cell Lines” value (KM12) was greater than 100 µM and the “TGI Conc. per Cell Lines” value (A498) was 65.8 µM. The LC50 (A498; Homo sapiens) was 88.6 µM, the GI50 (A498; [2]) was 15.4 µM and the “GI50 Selectivity Ratio (MID a/MID b)” value (Colon cancer subpanel; Colon cancer subpanel) was 0.978. The GI50 (Colon cancer subpanel; Homo sapiens, Colon cancer, average sensitivity of all cell lines of the subpanel, read-out: GI50 Subpanel MID b) was 3.73 µM, the “TGI Conc. per Cell Lines” value (COLO205) was 25.9 µM and the GI50 (COLO205; Homo sapiens, COLO 205, read-out: GI50 Conc. per Cell Lines) was 4.47 µM. It also gave a CC50 (COLO205; Homo sapiens, COLO 205, read-out: LC50 (the source's name)) greater than 100 µM, a GI50 ([1]; average sensitivity of all cell lines, read-out: GI50 MID a) of 3.65 µM and a GI50 ([1]; most of the tested cell lines across nine subpanels, read-out: GI50 values, range across nine subpanels) of 2.45 to 5.23 µM. The GI50 (MDA-MB-435; [2]) was 1.74 µM, the CC50 (MDA-MB-435; [3]) was 60.5 µM and the “TGI Conc. per Cell Lines” value (MDA-MB-435) was 3.41 µM. For the same compound, the GI50 (OVCAR-8; [2]) was 3.72 µM, the CC50 (OVCAR-8; [3]) was greater than 100 µM and the “TGI Conc. per Cell Lines” value (OVCAR-8) was 15.8 µM. The GI50 (U251; Homo sapiens, U-251, read-out: GI50 Conc. per Cell Lines) was 4.73 µM, the CC50 (U251; Homo sapiens, U-251, read-out: LC50 (the source's name)) was 46.9 µM and the “TGI Conc. per Cell Lines” value (U251) was 81.2 µM. For the same compound, the “%inhibition” value (tubulin; conc 0.01 (unit not given; IC50 from this curve in µg/ml)) was 5.23%, the “%inhibition” value (tubulin; conc 0.1 (unit not given; IC50 from this curve in µg/ml)) was 15.6% and the “%inhibition” value (tubulin; conc 1 (unit not given; IC50 from this curve in µg/ml)) was 34.8%. The “%inhibition” value (tubulin; conc 10 (unit not given; IC50 from this curve in µg/ml)) was 58.9%, the “%inhibition” value (tubulin; conc 100 (unit not given; IC50 from this curve in µg/ml)) was 87.6% and the IC50 (tubulin; read-out: Tub. IC50±SD (converted)) was 6.26 µM. For the same compound, the IC50 (tubulin; read-out: Tubulin Inhibitory Effect, IC50) was 6.26 ± 0.15 µM, the GI50 (IGROV1; Homo sapiens, IGROV-1, read-out: GI50 Conc. per Cell Lines) was 5.35 µM and the CC50 (IGROV1; Homo sapiens, IGROV-1, read-out: LC50 (the source's name)) was greater than 100 µM. The “TGI Conc. per Cell Lines” value (IGROV1) was 19.8 µM, the GI50 (Ovarian cancer subpanel; Homo sapiens, Ovarian cancer, average sensitivity of all cell lines of the subpanel, read-out: GI50 Subpanel MID b) was 3.61 µM and the “GI50 Selectivity Ratio (MID a/MID b)” value (Ovarian cancer subpanel; Ovarian cancer subpanel) was 1.01. For the same compound, the GI50 (SK-MEL-5; [2]) was 3.87 µM, the CC50 (SK-MEL-5; [3]) was 38.7 µM and the “TGI Conc. per Cell Lines” value (SK-MEL-5) was 19.5 µM. The GI50 (NCI-H322M; [2]) was 5.71 µM, the CC50 (NCI-H322M; [3]) was greater than 100 µM and the “TGI Conc. per Cell Lines” value (NCI-H322M) was 7.33 µM. For the same compound, the GI50 (Prostate cancer subpanel; Homo sapiens, Prostate cancer, average sensitivity of all cell lines of the subpanel, read-out: GI50 Subpanel MID b) was 2.45 µM, the “GI50 Selectivity Ratio (MID a/MID b)” value (Prostate cancer subpanel; Prostate cancer subpanel) was 1.48 and the “TGI Conc. per Cell Lines” value (HT29) was 11.8 µM. It also gave a GI50 (HT29; Homo sapiens, HT-29, read-out: GI50 Conc. per Cell Lines) of 3.04 µM, a CC50 (HT29; Homo sapiens, HT-29, read-out: LC50 (the source's name)) greater than 100 µM and a GI50 (SF-295; [2]) of 3.11 µM. The CC50 (SF-295; [3]) was greater than 100 µM, the “TGI Conc. per Cell Lines” value (SF-295) was 13.4 µM and the GI50 (SK-MEL-28; [2]) was 4.41 µM. The CC50 (SK-MEL-28; [3]) was 57.7 µM, the “TGI Conc. per Cell Lines” value (SK-MEL-28) was greater than 100 µM and the “TGI Conc. per Cell Lines” value (HOP-62) was 3.65 µM. It also gave a GI50 (HOP-62; [2]) of 1.74 µM.
